Patent publication US10669289B2, “Boronic acid derivatives” (MERCK PATENT GMBH, priority 2014, dated 2020)

How the values were obtained:
[1] = molecular target: human immuno proteasome (LMP7) (Homo sapiens (Human), UniProt P28062); test: Determination of LMP7 activity (fluorescence intensity assay, Suc-LLVY-AMC); type: biochemical
Description: Determination of LMP7 Activity:
Measurement of LMP7 inhibition is performed in 384 well format based on fluorescence intensity assay.
(§1) Purified human immuno proteasome (0.25 nM) and serial diluted compounds in DMSO (range of concentrations from 30 μM to 15 pM) or controls are incubated for 20 minutes or 120 minutes (long incubation) at 25° C. in assay buffer containing 50 mM Tris pH 7.4, 0.03% SDS, 1 mM EDTA and 1% DMSO. The reaction is initiated by the addition of the fluorogenic peptide substrate, Suc-LLVY-AMC (Bachem 1-1395), at a concentration of 40 μM. After 60 minutes of incubation at 37° C., fluorescence intensity is measured at λex=350 nm and λem=450 nm with a fluorescence reader (Perkin Elmer Envision reader or equivalent).
(§2) Unless indicated otherwise the results are obtained after incubation for 20 minutes.

[2] = molecular target: human constitutive proteasome (Beta5) (Homo sapiens (Human), UniProt P28074); test: Determination of Beta5 activity (fluorescence intensity assay, Suc-LLVY-AMC); type: biochemical
Description: Determination of Beta5 Activity:
Measurement of Beta5 inhibition is performed in 384 well format based on fluorescence intensity assay.
as §1, with “constitutive” for “immuno”, “(1.25” for “(0.25”
as §2

[3] = LMP7 versus Beta5, incubation for 20 minutes
[4] = LMP7 versus Beta5, long incubation (120 min)

Compound	Selectivity LMP7 vs Beta5 [1, 3]	IC50 ([1]; incubation for 20 minutes)	IC50 ([2]; incubation for 20 minutes)	Selectivity LMP7 vs Beta5 [1, 4]	IC50 ([1]; long incubation (120 min))	IC50 ([2]; long incubation (120 min))
C=CC(=O)N(CC(=O)N[C@@H](Cc1ccc(C)cc1C)B(O)O)c1ccc(F)cc1 [Compound No. 2, [(1R)-2-(2,4-dimethylphenyl)-1-[[2-(4-fluoro-N-prop-2-enoyl-anilino)acetyl]amino]ethyl]boronic Acid]	++++ (100 ≤ Selectivity < 150)	< 50 nM	500 to 5000 nM	–	–	–
C/C=C\C(=O)N(CC)CC(=O)N[C@@H](Cc1ccc(C)cc1C)B(O)O [Compound No. 18, [(1R)-1-[[2-[[(Z)-but-2-enoyl]-ethyl-amino]acetyl]amino]-2-(2,4-dimethylphenyl)ethyl]boronic Acid]	+++ (70 ≤ 100)	50 to 500 nM	500 to 5000 nM	–	–	–
C=C(C)C(=O)N(CC)CC(=O)N[C@@H](Cc1ccc(C)cc1C)B(O)O [Compound No. 32, [(1R)-2-(2,4-dimethylphenyl)-1-[[2-[ethyl(2-methylprop-2-enoyl)-amino]acetyl]amino]ethyl]boronic Acid]	+++ (70 ≤ 100)	50 to 500 nM	> 5000 nM	–	–	–
C=CC(=O)N(c1ccccc1)[C@H](C)C(=O)N[C@@H](Cc1ccc(C)c(C)c1)B(O)O [Compound No. 47, [(1R)-2-(3,4-dimethylphenyl)-1-[[(2R)-2-(N-prop-2-enoylanilino)propanoyl]amino]ethyl]boronic Acid]	–	–	–	+++++ (Selectivity ≥ 150)	50 to 500 nM	> 5000 nM
C#CC(=O)N(C)CC(=O)N[C@@H](Cc1ccc(C)cc1C)B(O)O [Compound No. 11, [(1R)-2-(2,4-dimethylphenyl)-1-[[2-[methyl(prop-2-ynoyl)amino]-acetyl]amino]ethyl]boronic Acid]	+++ (70 ≤ 100)	< 50 nM	500 to 5000 nM	–	–	–
C=CS(=O)(=O)N(C)CC(=O)N[C@@H](Cc1ccc(C)cc1C)B(O)O [Compound No. 15, [(1R)-2-(2,4-dimethylphenyl)-1-[[2-[methyl(vinylsulfonyl)amino]-acetyl]amino]ethyl]boronic Acid]	+++ (70 ≤ 100)	< 50 nM	500 to 5000 nM	–	–	–
C=CC(=O)N(c1ccccc1)[C@@H](C)C(=O)N[C@@H](Cc1ccc(C)cc1C)B(O)O [Compound No. 46, [(1R)-2-(2,4-dimethylphenyl)-1-[[(2S)-2-(N-prop-2-enoylanilino)propanoyl]amino]ethyl]boronic Acid]	++ (50 ≤ Selectivity < 70)	500 to 5000 nM	> 5000 nM	–	–	–
C=CC(=O)N(CC(=O)N[C@@H](Cc1ccccc1)B(O)O)c1ccccc1F [Compound No. 44, [(1R)-1-[[2-(2-fluoro-N-prop-2-enoyl-anilino)acetyl]amino]-2-phenyl-ethyl]boronic Acid]	–	–	–	+++++ (Selectivity ≥ 150)	< 50 nM	> 5000 nM
C/C=C/C(=O)N(CC)CC(=O)N[C@@H](Cc1ccc(C)cc1C)B(O)O [Compound No. 23, [(1R)-1-[[2-[[(E)-but-2-enoyl]-ethyl-amino]acetyl]amino]-2-(2,4-dimethylphenyl)ethyl]boronic Acid]	+++ (70 ≤ 100)	< 50 nM	500 to 5000 nM	–	–	–
C#CC(=O)N(CC(=O)N[C@@H](Cc1ccc(C)cc1C)B(O)O)c1ccccc1 [Compound No. 7, [(1R)-2-(2,4-dimethylphenyl)-1-[[2-(N-prop-2-ynoylanilino)acetyl]-amino]ethyl]boronic Acid]	++++ (100 ≤ Selectivity < 150)	< 50 nM	500 to 5000 nM	–	–	–
C#CC(=O)N(CC)CC(=O)N[C@@H](Cc1ccc(C)cc1C)B(O)O [Compound No. 12, [(1R)-2-(2,4-dimethylphenyl)-1-[[2-[ethyl(prop-2-ynoyl)amino]acetyl]-amino]ethyl]boronic Acid]	++++ (100 ≤ Selectivity < 150)	< 50 nM	500 to 5000 nM	–	–	–
CCN(CC(=O)N[C@@H](Cc1ccc(C)cc1C)B(O)O)C(=O)C=C(C)C [Compound No. 24, [(1R)-2-(2,4-dimethylphenyl)-1-[[2-[ethyl(3-methylbut-2-enoyl)amino]-acetyl]amino]ethyl]boronic Acid]	++ (50 ≤ Selectivity < 70)	50 to 500 nM	500 to 5000 nM	–	–	–
C=CC(=O)N(CC(=O)N[C@@H](Cc1ccc(C)cc1C)B(O)O)c1ccc(OC(F)(F)F)cc1 [Compound No. 9, [(1R)-2-(2,4-dimethylphenyl)-1-[[2-[N-prop-2-enoyl-4-(trifluoromethoxy)anilino]acetyl]amino]ethyl]boronic Acid]	+++ (70 ≤ 100)	< 50 nM	500 to 5000 nM	–	–	–
C=CC(=O)N(c1ccccc1)[C@H](C)C(=O)N[C@@H](Cc1ccc(C)cc1C)B(O)O [Compound No. 45, [(1R)-2-(2,4-dimethylphenyl)-1-[[(2R)-2-(N-prop-2-enoylanilino)propanoyl]amino]ethyl]boronic Acid]	–	–	–	+++++ (Selectivity ≥ 150)	50 to 500 nM	> 5000 nM

Results, then the compound that gave them:

Selectivity LMP7 vs Beta5 [1, 3]	IC50 ([1]; incubation for 20 minutes)	IC50 ([2]; incubation for 20 minutes)	Selectivity LMP7 vs Beta5 [1, 4]	IC50 ([1]; long incubation (120 min))	IC50 ([2]; long incubation (120 min))	Compound
–	–	–	+++++ (Selectivity ≥ 150)	50 to 500 nM	> 5000 nM	CCN(CC(=O)N[C@@H](Cc1ccc(C)cc1C)B(O)O)C(=O)/C=C/C(=O)N(C)C [Compound No. 62, [(1R)-1-[[2-[[(E)-4-(dimethylamino)-4-oxo-but-2-enoyl]-ethyl-amino]acetyl]amino]-2-(2,4-dimethylphenyl)ethyl]boronic Acid]
–	–	–	+++++ (Selectivity ≥ 150)	< 50 nM	500 to 5000 nM	C=CC(=O)N(CC(=O)N[C@@H](Cc1cccs1)B(O)O)c1ccc(Br)cc1 [Compound No. 104, [(1R)-1-[[2-(4-bromo-N-prop-2-enoyl-anilino)acetyl]amino]-2-(2-thienyl)ethyl]boronic Acid]
–	–	–	+++++ (Selectivity ≥ 150)	< 50 nM	> 5000 nM	C=CC(=O)N(CC(=O)N[C@@H](Cc1ccsc1)B(O)O)C1CC1 [Compound No. 90, [(1R)-1-[[2-[cyclopropyl(prop-2-enoyl)amino]acetyl]amino]-2-(3-thienyl)ethyl]boronic Acid]
–	–	–	+++++ (Selectivity ≥ 150)	< 50 nM	> 5000 nM	C=CC(=O)N(CC(=O)N[C@@H](Cc1ccsc1)B(O)O)c1cc(Cl)cc(Cl)c1 [Compound No. 95, [(1R)-1-[[2-(3,5-dichloro-N-prop-2-enoyl-anilino)acetyl]amino]-2-(3-thienyl)ethyl]boronic Acid]
–	–	–	++ (50 ≤ Selectivity < 70)	500 to 5000 nM	> 5000 nM	C=CC(=O)N(C)CC(=O)N[C@H](Cc1ccsc1)B(O)O [Compound No. 73, [(1S)-1-[[2-[methyl(prop-2-enoyl)amino]acetyl]amino]-2-(3-thienyl)ethyl]boronic Acid]
–	–	–	++ (50 ≤ Selectivity < 70)	500 to 5000 nM	> 5000 nM	C=CC(=O)N1CCC[C@@H]1C(=O)N[C@@H](Cc1ccc(Cl)cc1Cl)B(O)O [Compound No. 54, [(1R)-2-(2,4-dichlorophenyl)-1-[[(2R)-1-prop-2-enoylpyrrolidine-2-carbonyl]amino]ethyl]boronic Acid]
–	–	–	+++++ (Selectivity ≥ 150)	< 50 nM	> 5000 nM	C=CC(=O)N(CC)CC(=O)N[C@@H](Cc1ccsc1)B(O)O [Compound No. 77, [(1R)-1-[[2-[ethyl(prop-2-enoyl)amino]acetyl]amino]-2-(3-thienyl)ethyl]boronic Acid]
–	–	–	+++++ (Selectivity ≥ 150)	< 50 nM	> 5000 nM	C=CC(=O)N(CC(=O)N[C@@H](Cc1ccc(Cl)cc1Cl)B(O)O)CC(F)(F)F [Compound No. 60, [(1R)-2-(2,4-dichlorophenyl)-1-[[2-[prop-2-enoyl(2,2,2-trifluoroethyl)amino]acetyl]amino]ethyl]boronic Acid]
–	–	–	++ (50 ≤ Selectivity < 70)	< 50 nM	500 to 5000 nM	C=CC(=O)N(CC(=O)N[C@@H](Cc1ccsc1)B(O)O)c1cccc(C(=O)N(C)C)c1 [Compound No. 102, [(1R)-1-[[2-[3-(dimethylcarbamoyl)-N-prop-2-enoyl-anilino]acetyl]amino]-2-(3-thienyl)ethyl]boronic Acid]
–	–	–	+++++ (Selectivity ≥ 150)	< 50 nM	> 5000 nM	CCN(CC(=O)N[C@@H](Cc1ccc(C)cc1C)B(O)O)C(=O)/C=C/C(=O)OC [Compound No. 50, [(1R)-2-(2,4-dimethylphenyl)-1-[[2-[ethyl-[(E)-4-methoxy-4-oxo-but-2-enoyl]amino]acetyl]amino]ethyl]boronic Acid]
–	–	–	+++++ (Selectivity ≥ 150)	< 50 nM	> 5000 nM	C=CC(=O)N(CC(=O)N[C@@H](Cc1ccc(C)cc1C)B(O)O)C1CC1 [Compound No. 59, [(1R)-1-[[2-[cyclopropyl(prop-2-enoyl)amino]acetyl]amino]-2-(2,4-dimethylphenyl)ethyl]boronic Acid]
